The values below come from publication PMC5797143, “Epigenetic modulation of inflammation and synaptic plasticity promotes resilience against stress in mice” (Nature Communications, 2018).

Data set [1] can be described thus: Cytotoxicity by high content screening (HCS). As to conditions: human, HepG2 cells. The class given is cell-based. The source says:
(§1) Based on the efficacy of DHCA/Mal-gluc in treating stress-induced depression, we initiated an in vitro toxicity and drug-like properties studies to investigate the potential of developing these two phytochemicals as novel therapies. […] At low concentrations, DHCA and Mal-gluc had no detectable effects on cell number, nuclear size, DNA structure, cell membrane permeability, mitochondrial mass, mitochondrial membrane potential or cytochrome C release in high content screening (HCS)[41] using HepG2 cells (Table 1). At high concentrations, Mal-gluc reduced cell number, increased nuclear size, […], and increased mitochondrial mass, with calculated EC50s beyond physiological concentration (Table 1).
(§2) MTT and LDH release assays were conducted in MSN-enriched primary neurons and in PBMCs[64]. Cellular cytotoxicity was conducted in HepG2 cells using high content screening (HCS) protocols. Briefly, HepG2 cells were plated on 384-well tissue culture treated black walled clear bottomed polystyrene plates and treated with varying concentrations of Mal-gluc or DHCA. The cells were loaded with the relevant dye/antibody for each cell-health marker following incubation, including cell count, markers for nuclear size, DNA structure, cell membrane permeability, mitochondrial mass, mitochondrial membrane potential and cytochrome C release. The plates were then scanned using an automated fluorescent cellular imager ArrayScanr (Thermo Scientific Cellomics).

Data set [2] concerns CpG-rich sequences of mouse IL-6 promoter and introns 1, 3. The experiment in a line: CpG-free luciferase reporter with IL-6 promoter/intron CpG-rich segments in N2a cells. The class given is cell-based. The note with it: 24 h. Here is the method: To investigate how DHCA may attenuate IL-6 generation, we tested the effect of DHCA on Toll-like receptor-4 mediated signaling pathways. PBMCs were pretreated with DHCA and stimulated with LPS using the same protocol as during screening. Samples were taken at 0, 30 min, 60 min, 6 h and 16 h following LPS stimulation and cell lysates were subjected to a multiplex ELISA assay. […] Based on evidence that DNA methylation at a single CpG in the human IL-6 promoter region effectively alters IL-6 expression, we next tested whether DHCA can modulate IL-6 gene expression through methylation mechanisms. We treated PBMC cells with DHCA and measured the expression of enzymes essential for DNA methylation/demethylation. […] To investigate how methylation influences IL-6 gene expression, we employed the CpG-free luciferase reporter system. We cloned a ~280 bp CpG rich DNA segment from the mouse IL-6 promoter into a promoterless CpG-free reporter construct and transfected into N2a cells. We found the CpG-rich IL-6 promoter segment presented no inherent promoter activity as reflected by no differences in luciferase activity compared to the control construct (Fig. 2f). […] We then cloned CpG rich DNA segments from IL-6 introns 1, 3 or 4 into the CpG-free luciferase reporter construct with a minimal EF1 promoter and no enhancer activity. […] In contrast, the CpG-rich region of IL-6 intron 4 presented no observable enhancer activity (Fig. 2g). […] To test whether DHCA may influence the expression of other pro-inflammatory factors, we measured the level of secreted cytokines following LPS stimulation (Supplementary Fig. 3).
CpG-rich motif from mouse IL-6 promoter and intron 1, intron 3, and intron 4 were cloned into basic (no promoter or enhancer) or promoter (minimal EF1 promoter with no enhancer) pCpG-free Lucia plasmid (InvivoGen) using In-Fusion Cloning Kit (Clontech Laboratories). Plasmids were prepared in E. coli GT115 cells and expressed in N2A neuoblastoma cells using lipofectamine 2000 (ThermoFisher) according to manufacturer’s instruction. Following overnight recovery, cells were subjected to 5 µM of methylation inhibitor 5-Aza-2′-deoxycytidine (AZA-DC) or DHCA treatment. Twenty-four hours later, 10 µl of medium was incubated with 50 µl of QUANTI-Luc luciferase substrate for luciferase activity assessment.
In general terms: A reporter such as luciferase makes a cellular process visible.

Data set [3] concerns HepG2 cells. Nature of the data set: Cytotoxicity by high content screening (HCS). In kind it is cell-based.
Text: as §1, §2

Data set [4] concerns HDAC2 and other class I or class II HDACs. Nature of the data set: HDAC gene expression in MSN-enriched primary culture. The class given is cell-based, mouse. As to conditions: MSN-enriched primary cultures. The text has this:
Stress-induced reduction of Rac1 expression is associated with a repressed chromatin state surrounding the promoter region of Rac1 in the NAc[11]. Since Mal-gluc can cross the BBB, we hypothesized that Mal-gluc may promote Rac1 expression, in part, by modulating chromatin acetylation. We first assessed the effect of Mal-gluc on HDACs that play key roles in chromatin deacetylation. […] Using site directed quantitative chromatin immunoprecipitation (qCHIP), we examined the permissive histone H3 acetylation (AcH3) in Mal-gluc treated MSN-enriched primary cultures.
Striatal tissue from E18 was mechanically triturated and centrifuged. Neurons were seeded onto a poly-D-lysine-coated 12-well plate at 5 × 10^5 cells/well and cultured in Neurobasal medium, supplemented with 2% B27, 0.5 mM L-glutamine, and 1% penicillin-streptomycin (Gibco-BRL, Invitrogen). Following 4 days in vitro (DIV), 5 µM of Ara-c was used to inhibit the growth of glial cells. Following 10-day DIV culturing, neurons were treated with select brain-bioavailable polyphenol metabolites for 16 h, washed once with cold PBS and RNA was then isolated. […]
Total RNA from MSN-enriched cultures or brain NAc was isolated using the RNeasy Mini Kit (Qiagen, Valencia, CA, USA) and reverse transcribed. Gene expression was measured in four replicates by quantitative RT-PCR using Maxima SYBR Green master mix (Fermentas) in ABI Prism 7900HT. […]

The mark [5] stands for this setting: DHCA ↑ (NS, fit not statistically significant), NR = No response observed, read-out: Cytotoxicity by HCS (AC50), Mitochondrial membrane potential.
Setting [6] is: DHCA ↑, NR = No response observed, read-out: Cytotoxicity by HCS (AC50), Cytochrome C release.
The mark [7] stands for this setting: Malvidin-gluc ↑, NR = No response observed, read-out: Cytotoxicity by HCS (AC50), Mitochondrial mass.
The mark [8] stands for this setting: Malvidin-gluc ↑, NR = No response observed, read-out: Cytotoxicity by HCS (AC50), Nuclear size.
The mark [9] stands for this setting: Malvidin-gluc ↓, NR = No response observed, read-out: Cytotoxicity by HCS (AC50), Cell number.
The mark [10] stands for this setting: NR = No response observed, read-out: Cytotoxicity by HCS (AC50), DNA structure.
The mark [11] stands for this setting: both ↓, read-out: Cytotoxicity by HCS (AC50), Cell membrane permeability.

Like-named read-outs stand apart in the source and are kept apart here.

Regarding `O=C(O)CCc1ccc(O)c(O)c1` [DHCA, 3(3,4-dihydroxy-phenyl) propionic acid], the AC50 in data set [1] (setting [5]), in data set [1] (setting [6]), in data set [1] (setting [7]), in data set [1] (setting [8]), in data set [1] (setting [9]) and in data set [1] (setting [10]) was over 200 µM throughout. Further, the half-maximal activity concentration (AC50) (commonly the concentration at which the activity in the assay is half-maximal) in data set [1] (setting [11]) was found to be 56.6 µM. Further, the “luciferase (enhancer) activity, IL-6 intron 1” value in data set [2] is listed as “partially attenuated”. In data set [2], the “luciferase (enhancer) activity, IL-6 intron 3” value is listed as “totally abolished”.
In the case of `COc1cc(-c2[o+]c3cc(O)cc(O)c3cc2O[C@@H]2O[C@H](CO)[C@@H](O)[C@H](O)[C@H]2O)cc(OC)c1O` [Mal-gluc], the AC50 in data set [3] (setting [5]) was over 200 µM; in data set [3] (setting [6]), over 200 µM; in data set [3] (setting [7]), 176 µM; in data set [3] (setting [8]), 88.4 µM; in data set [3] (setting [9]), 176 µM; in data set [3] (setting [10]), over 200 µM. In addition, the AC50 in data set [3] (setting [11]) worked out at 52.7 µM. Moreover, in data set [4], the “expression of HDAC2” value was “significantly reduced the expression of HDAC2”. Also, the “expression of other class I or class II HDACs” value in data set [4] is recorded as “no observable effect”.
